The values that follow come from patent US5807754A, “Combinatorial synthesis and high-throughput screening of a Rev-inhibiting arylidenediamide array” (Arqule, Inc., priority 1995, dated 1998).

SMILES strings stand for the structures.

Rev-RRE complexes (recombinant Rev protein, synthetic 32P-labelled RRE RNA), sequence (P04618 whole entry, looked up, one chain of several): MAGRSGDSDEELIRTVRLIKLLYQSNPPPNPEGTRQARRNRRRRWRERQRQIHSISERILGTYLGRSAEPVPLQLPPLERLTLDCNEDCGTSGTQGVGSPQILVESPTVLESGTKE

One assay deals with Rev-RRE complexes (recombinant Rev protein, synthetic 32P-labelled RRE RNA) (Human immunodeficiency virus type 1 group M subtype B, UniProt P04618). The assay is described as follows: Rev-RRE binding inhibition, nitrocellulose filter binding assay with scintillation counting. Also noted: species or system Human Immunodeficiency Virus (HIV). As to conditions: array assayed at 6 ug/mL, non-specific competitor RNA. As for the experimental part:
The array was assayed in parallel at 6 ug/mL in reaction mixtures containing recombinant Rev protein, synthetic 32P-labelled RRE RNA, and a non-specific competitor RNA. The reaction is then filtered through nitrocellulose filters and washed with a low salt binding buffer. Rev-RRE complexes are retained in the filter while the unbound RRE filters through. Rev-RRE complexes retained in the filter are then quantified by scintillation counting. The percentage of inhibition is calculated according to the formula: […]
where CPM1 is the activity obtained in the presence of the drug and CPM0 is the average activity in the absence of the drug. […] Raising the criterion of interest to 90% inhibition of complex formation afforded a set of 55 compounds which were examined for common functionality. These 55 compounds and their inhibition values are listed in the following table, where A, B, and C are the structural diversity elements of the scaffold: […]
Take `O=C(NC(c1ccccc1)c1ccccc1)/C(=C/c1cccc(C(F)(F)F)c1)NC(=O)c1ccc2ccccc2c1`: the “% inh” value is 93%.

The same assay, now with this note: array assayed at 6 ug/mL, non-specific competitor RNA, listed as 2-napbthyl / α,α,α-trifluoro-m-toluyl / 1,2,3,4-tetrahydronaphth-1-yl.
With `O=C(NC1CCCc2ccccc21)/C(=C/c1cccc(C(F)(F)F)c1)NC(=O)c1ccc2ccccc2c1` (stereo not shown), the “% inh” value was 90%.

Still in this assay, the particulars now being: array assayed at 6 ug/mL, non-specific competitor RNA, read-out: % inh.
For `O=C(NCC(O)c1ccccc1)/C(=C/c1ccc(Cl)cc1Cl)NC(=O)c1ccc2ccccc2c1` (stereo not shown), the inhibition at 6 µg/mL came out at 95%.

On to `O=C(Nc1cccnc1)/C(=C/c1ccc(Cl)cc1Cl)NC(=O)c1ccc2ccccc2c1`, for which the inhibition at 6 µg/mL came out at 91%.

Take `O=C(NCc1cccc2ccccc12)/C(=C/c1ccc(F)cc1F)NC(=O)c1ccc2ccccc2c1`: the inhibition at 6 µg/mL is 93%.

For `O=C(NC(c1ccccc1)c1ccccc1)/C(=C/c1cccc(Cl)c1)NC(=O)c1ccc2ccccc2c1`, the inhibition at 6 µg/mL came to 92%.

On to `O=C(NCc1cccc2ccccc12)/C(=C/c1cnc2ccccc2c1)NC(=O)c1ccc2ccccc2c1`, for which the inhibition at 6 µg/mL is 96%.

For the compound `O=C(NC1CCCc2ccccc21)/C(=C/c1ccc(OC(F)(F)F)cc1)NC(=O)c1ccc2ccccc2c1` (stereo not shown), the inhibition at 6 µg/mL came out at 94%.

In the case of `O=C(NC(c1ccccc1)c1ccccc1)/C(=C/c1ccc(OC(F)(F)F)cc1)NC(=O)c1ccc2ccccc2c1`, the inhibition at 6 µg/mL came out at 96%.

In the case of `O=C(NCC(c1ccccc1)c1ccccc1)/C(=C/c1ccc(F)cc1)NC(=O)c1ccc2ccccc2c1`, the inhibition at 6 µg/mL turned out to be 90%.

Regarding `CC(C)CC(CO)NC(=O)/C(=C/c1cccc(C(F)(F)F)c1)NC(=O)c1ccc2ccccc2c1` (stereo not shown), the inhibition at 6 µg/mL turned out to be 94%.

Take `O=C(NC1CCc2ccccc21)/C(=C/c1cccc(C(F)(F)F)c1)NC(=O)c1ccc2ccccc2c1` (stereo not shown): the inhibition at 6 µg/mL amounted to 92%.

In the case of `O=C(NC1CCCc2ccccc21)/C(=C/c1cccc(C(F)(F)F)c1)NC(=O)c1ccc2ccccc2c1` (stereo not shown), the inhibition at 6 µg/mL amounted to 97%.

Regarding `Cc1ccc(CCNC(=O)/C(=C/c2cccc(C(F)(F)F)c2)NC(=O)c2ccc3ccccc3c2)cc1`, the inhibition at 6 µg/mL is 96%.

`O=C(NCc1ccco1)/C(=C/c1cccc(C(F)(F)F)c1)NC(=O)c1ccc2ccccc2c1`: the inhibition at 6 µg/mL came to 93%.

In the case of `O=C(NCC(c1ccccc1)c1ccccc1)/C(=C/c1cccc(C(F)(F)F)c1)NC(=O)c1ccc2ccccc2c1`, the inhibition at 6 µg/mL is 93%.

`O=C(N/C(=C\c1cccc(C(F)(F)F)c1)C(=O)N1CCC(Cc2ccccc2)CC1)c1ccc2ccccc2c1`: the inhibition at 6 µg/mL stood at 95%.

For the compound `O=C(NCc1cccc2ccccc12)/C(=C/c1cccc(C(F)(F)F)c1)NC(=O)c1ccc2ccccc2c1`, the inhibition at 6 µg/mL was found to be 94%.

`O=C(NC(c1ccccc1)c1ccccc1)/C(=C/c1cccc(C(F)(F)F)c1)NC(=O)c1ccc2ccccc2c1`: the inhibition at 6 µg/mL turned out to be 96%.

For the compound `CCC(CC)NC(=O)/C(=C/c1cccc(C(F)(F)F)c1)NC(=O)c1ccc2ccccc2c1`, the inhibition at 6 µg/mL is 93%.

For `O=C(NC1CCc2ccccc21)/C(=C/c1ccc(C(F)(F)F)cc1)NC(=O)c1ccc2ccccc2c1` (stereo not shown), the inhibition at 6 µg/mL stood at 92%.

Regarding `O=C(NC1CCCc2ccccc21)/C(=C/c1ccc(C(F)(F)F)cc1)NC(=O)c1ccc2ccccc2c1` (stereo not shown), the inhibition at 6 µg/mL was found to be 95%.

In the case of `O=C(NCC(c1ccccc1)c1ccccc1)/C(=C/c1ccc(C(F)(F)F)cc1)NC(=O)c1ccc2ccccc2c1`, the inhibition at 6 µg/mL was found to be 95%.

For `O=C(N/C(=C\c1ccc(C(F)(F)F)cc1)C(=O)N1CCC(Cc2ccccc2)CC1)c1ccc2ccccc2c1`, the inhibition at 6 µg/mL amounted to 91%.

As to `O=C(NCCCc1ccccc1)/C(=C/c1ccc(C(F)(F)F)cc1)NC(=O)c1ccc2ccccc2c1`, the inhibition at 6 µg/mL came out at 91%.

Regarding `O=C(NCC(c1ccccc1)c1ccccc1)/C(=C/c1cc(F)cc(F)c1)NC(=O)c1ccc(Cl)cc1Cl`, the inhibition at 6 µg/mL worked out at 94%.

Regarding `Cc1ccc(CCNC(=O)/C(=C/c2cccc(Oc3ccccc3)c2)NC(=O)c2ccc(Cl)cc2Cl)cc1`, the inhibition at 6 µg/mL was determined as 95%.

On to `O=C(NC1CCCc2ccccc21)/C(=C/c1ccc(-c2ccccc2)cc1)NC(=O)c1ccc(Cl)cc1Cl` (stereo not shown), for which the inhibition at 6 µg/mL came to 92%.

Take `Cc1ccc(CCNC(=O)/C(=C/c2ccc(-c3ccccc3)cc2)NC(=O)c2ccc(Cl)cc2Cl)cc1`: the inhibition at 6 µg/mL was determined as 94%.

Turning to `O=C(NCc1cccc2ccccc12)/C(=C/c1ccc(-c2ccccc2)cc1)NC(=O)c1ccc(Cl)cc1Cl`, the inhibition at 6 µg/mL was found to be 90%.

As to `O=C(NCc1ccccc1)/C(=C/c1ccc(-c2ccccc2)cc1)NC(=O)c1ccc(Cl)cc1Cl`, the inhibition at 6 µg/mL stood at 94%.

For the compound `O=C(NC(c1ccccc1)c1ccccc1)/C(=C/c1ccc(-c2ccccc2)cc1)NC(=O)c1ccc(Cl)cc1Cl`, the inhibition at 6 µg/mL was 96%.

As for `O=C(NCCc1ccccc1)/C(=C/c1ccc(-c2ccccc2)cc1)NC(=O)c1ccc(Cl)cc1Cl`, the inhibition at 6 µg/mL is 91%.

Consider `O=C(NC1CCc2ccccc21)/C(=C/c1ccc(-c2ccccc2)cc1)NC(=O)c1ccc(Cl)cc1Cl` (stereo not shown), for which the inhibition at 6 µg/mL turned out to be 90%.

Turning to `O=C(NC1CCCc2ccccc21)/C(=C/c1cccc(C(F)(F)F)c1)NC(=O)c1ccc(Cl)cc1Cl` (stereo not shown), the inhibition at 6 µg/mL came to 90%.

For `O=C(NCC(c1ccccc1)c1ccccc1)/C(=C/c1cccc(C(F)(F)F)c1)NC(=O)c1ccc(Cl)cc1Cl`, the inhibition at 6 µg/mL came to 93%.

As to `O=C(NC(c1ccccc1)c1ccccc1)/C(=C/c1cccc(C(F)(F)F)c1)NC(=O)c1ccc(Cl)cc1Cl`, the inhibition at 6 µg/mL came to 96%.

In the case of `O=C(N/C(=C\c1ccc(C(F)(F)F)cc1)C(=O)N1CCN(c2cccc(C(F)(F)F)c2)CC1)c1ccc(Cl)cc1Cl`, the inhibition at 6 µg/mL stood at 90%.

In the case of `O=C(N/C(=C\c1cccc(Oc2ccccc2)c1)C(=O)N1CCN(c2ccccc2)CC1)c1ccc(C(F)(F)F)cc1`, the inhibition at 6 µg/mL was found to be 90%.

Consider `O=C(NC(c1ccccc1)c1ccccc1)/C(=C/c1cccc(Oc2ccccc2)c1)NC(=O)c1ccc(C(F)(F)F)cc1`, for which the inhibition at 6 µg/mL was found to be 94%.

Regarding `O=C(NC1CCCc2ccccc21)/C(=C/c1ccc(Cl)cc1)NC(=O)c1ccc(C(F)(F)F)cc1` (stereo not shown), the inhibition at 6 µg/mL was 92%.

Regarding `O=C(N/C(=C\c1ccc(C(F)(F)F)cc1)C(=O)N1CCN(c2ccccc2)CC1)c1ccc(C(F)(F)F)cc1`, the inhibition at 6 µg/mL is 91%.

In the case of `O=C(NC1CCCc2ccccc21)/C(=C/c1ccc(C(F)(F)F)cc1)NC(=O)c1ccc(C(F)(F)F)cc1` (stereo not shown), the inhibition at 6 µg/mL turned out to be 94%.

Turning to `Cc1ccc(CCNC(=O)/C(=C/c2ccc(C(F)(F)F)cc2)NC(=O)c2ccc(C(F)(F)F)cc2)cc1`, the inhibition at 6 µg/mL stood at 95%.

`O=C(NC1CCCc2ccccc21)/C(=C/c1cccc(Oc2ccccc2)c1)NC(=O)c1ccc(C(F)(F)F)cc1` (stereo not shown): the inhibition at 6 µg/mL is 90%.

For the compound `Cc1ccc(C(=O)N/C(=C\c2ccccc2Cl)C(=O)NCCCN2CCOCC2)cc1`, the inhibition at 6 µg/mL stood at 95%.

Regarding `Cc1ccc(C(=O)N/C(=C\c2ccccc2Cl)C(=O)NCc2cccc3ccccc23)cc1`, the inhibition at 6 µg/mL was found to be 90%.

For `Cc1ccc(C(=O)N/C(=C\c2ccc(F)cc2F)C(=O)NCC(O)c2ccccc2)cc1` (stereo not shown), the inhibition at 6 µg/mL came out at 96%.

As to `O=C(NC1CCCCC1)/C(=C/c1ccccc1)NC(=O)c1ccc(Cl)cc1Cl` [2,4-dichlorophenyl / phenyl / cyclohexyl], the inhibition at 6 µg/mL stood at 98%.

On to `COc1cccc(/C=C(\NC(=O)c2ccc3ccccc3c2)C(=O)NC(c2ccccc2)c2ccccc2)c1` [2-naphthyl / m-anisyl / diphenylmethyl], for which the inhibition at 6 µg/mL amounted to 94%.

For the compound `COc1cccc(/C=C(\NC(=O)c2ccc3ccccc3c2)C(=O)NCCc2ccccc2)c1` [2-naphthyl / m-anisyl / phenethyl], the inhibition at 6 µg/mL was determined as 91%.

Turning to `O=C(Nc1cccnc1)/C(=C/c1ccccc1F)NC(=O)c1ccccc1` [phenyl / 2-fluorophenyl / 3-pyridinyl], the inhibition at 6 µg/mL was determined as 91%.

Still in this assay, the particulars now being: read-out: % inh, array assayed at 6 ug/mL, non-specific competitor RNA.
As to `CC(CCc1ccccc1)NC(=O)/C(=C/c1ccc(C(F)(F)F)cc1)NC(=O)c1ccc2ccccc2c1` (stereo not shown), the inhibition at 6 µg/mL was determined as 96%.

On to `O=C(NC(c1ccccc1)c1ccccc1)/C(=C/c1ccc(C(F)(F)F)cc1)NC(=O)c1ccc2ccccc2c1`, for which the inhibition at 6 µg/mL was found to be 96%.

Regarding `O=C(Nc1cccnc1)/C(=C/c1cc(F)cc(F)c1)NC(=O)c1ccc(Cl)cc1Cl`, the inhibition at 6 µg/mL is 91%.
